Measured values as given in PubChem BioAssay AID248 (DTP/NCI, 2004).
Toxic doses and inconclusive results are not listed. Rule as the data show it: active = T/C of 150% or more; inactive = T/C below 125%.

System: L1210 leukemia ip in BDF1 mice, survival T/C
Experiment: NCI In Vivo Anticancer Drug Screen. Data for tumor model L1210 Leukemia (intraperitoneal) in B6D2F1 (BDF1) mice
Settings: endpoint: mean survival time, higher = longer survival
Method in brief: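 Transplanted-tumor mice were given test agent; controls received vehicle only. Survival readings from the two groups were divided (treated over control).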

[1] = dose: 100.0 mg/kg/injection, schedule: Q01DX009 (ip), vehicle: saline
[2] = dose: 100.0 mg/kg/injection, schedule: Q04DX003 (ip), vehicle: saline
[3] = dose: 200.0 mg/kg/injection, schedule: Q01DX009 (ip), vehicle: saline
[4] = dose: 200.0 mg/kg/injection, schedule: Q04DX003 (ip), vehicle: saline
[5] = dose: 400.0 mg/kg/injection, schedule: Q01DX009 (ip), vehicle: saline
[6] = dose: 400.0 mg/kg/injection, schedule: Q04DX003 (ip), vehicle: saline
[7] = dose: 100.0 mg/kg/injection, schedule: Q04DX003 (ip), vehicle: Klucel (hydroxypropylcellulose) (HPC)
[8] = dose: 200.0 mg/kg/injection, schedule: Q04DX003 (ip), vehicle: Klucel (hydroxypropylcellulose) (HPC)

Measured: T/C

CN(C)CCCNC1=C(Cl)C(=O)C(NCCCN(C)C)=C(Cl)C1=O
inactive: dose: 100.0 mg/kg/injection, schedule: Q04DX003 (ip), vehicle: acetone 89 % of control

Nc1cccc(OCc2nc(N)nc(N)c2-c2ccc(Cl)c(Cl)c2)c1
inactive: dose: 100.0 mg/kg/injection, schedule: Q01DX001 (ip), vehicle: saline with Tween-80 97 % of control | dose: 200.0 mg/kg/injection, schedule: Q01DX001 (ip), vehicle: saline with Tween-80 90 % of control

CC(/C=N/N=C(N)N)=N\NC(N)=S
inactive: dose: 15.0 mg/kg/injection, schedule: Q01DX Z (ip), vehicle: carboxymethylcellulose (CMC) 98 % of control | dose: 30.0 mg/kg/injection, schedule: Q01DX Z (ip), vehicle: carboxymethylcellulose (CMC) 101 % of control | dose: 30.0 mg/kg/injection, schedule: Q01DX Z (oral), vehicle: carboxymethylcellulose (CMC) 103 % of control | dose: 60.0 mg/kg/injection, schedule: Q01DX Z (ip), vehicle: carboxymethylcellulose (CMC) 111 % of control | dose: 60.0 mg/kg/injection, schedule: Q01DX Z (oral), vehicle: carboxymethylcellulose (CMC) 103 % of control | dose: 120.0 mg/kg/injection, schedule: Q01DX Z (ip), vehicle: carboxymethylcellulose (CMC) 114 % of control | dose: 120.0 mg/kg/injection, schedule: Q01DX Z (oral), vehicle: carboxymethylcellulose (CMC) 106 % of control | dose: 240.0 mg/kg/injection, schedule: Q01DX Z (oral), vehicle: carboxymethylcellulose (CMC) 105 % of control

COC(=O)c1ccc(=O)oc1
inactive: dose: 50.0 mg/kg/injection, schedule: Q01DX009 (ip), vehicle: gum acacia 105 % of control | dose: 100.0 mg/kg/injection, schedule: Q01DX009 (ip), vehicle: gum acacia 100 % of control | dose: 100.0 mg/kg/injection, schedule: Q04DX003 (ip), vehicle: gum acacia 98 % of control | dose: 200.0 mg/kg/injection, schedule: Q01DX009 (ip), vehicle: gum acacia 88 % of control | dose: 200.0 mg/kg/injection, schedule: Q04DX003 (ip), vehicle: gum acacia 100 % of control

Cc1cccc(SC(=O)Nc2cc([N+](=O)[O-])ccc2Cl)c1
inactive: dose: 100.0 mg/kg/injection, schedule: Q01DX009 (ip), vehicle: Klucel (hydroxypropylcellulose) (HPC) 92 % of control | dose: 200.0 mg/kg/injection, schedule: Q01DX009 (ip), vehicle: Klucel (hydroxypropylcellulose) (HPC) 98 % of control | dose: 400.0 mg/kg/injection, schedule: Q01DX009 (ip), vehicle: Klucel (hydroxypropylcellulose) (HPC) 88 % of control

CCCCCCCCCCCCCCCCCCc1cc(C)ccc1C
inactive: dose: 100.0 mg/kg/injection, schedule: Q01DX001 (ip), vehicle: other 107 % of control | dose: 200.0 mg/kg/injection, schedule: Q01DX001 (ip), vehicle: other 90 % of control | dose: 400.0 mg/kg/injection, schedule: Q01DX001 (ip), vehicle: other 104 % of control

Cc1cc(NS(=O)(=O)c2ccc(N)cc2)no1
inactive: [1] 97 % of control | [2] 104 % of control | [3] 94 % of control | [4] 99 % of control | [5] 96 % of control | [6] 114 % of control

C=C(CC)C(=O)OCC
inactive: [2] 105 % of control | [4] 94 % of control | [6] 96 % of control

COc1ccc(/C=C2N=C(/C=C/c3ccccc3)OC\2=O)cc1OC
inactive: dose: 100.0 mg/kg/injection, schedule: Q04DX002 (ip), vehicle: gum acacia 88 % of control | dose: 200.0 mg/kg/injection, schedule: Q04DX002 (ip), vehicle: gum acacia 95 % of control | dose: 400.0 mg/kg/injection, schedule: Q04DX002 (ip), vehicle: gum acacia 88 % of control

NC(=O)/C=C/C(=O)O (tested in a mixture with another compound)
inactive: dose: 31.25 mg/kg/injection, schedule: Q#A X Z (ip), vehicle: saline 118 % of control | dose: 62.5 mg/kg/injection, schedule: Q#A X Z (ip), vehicle: saline 119 % of control | dose: 125.0 mg/kg/injection, schedule: Q#A X Z (ip), vehicle: saline 100 % of control | dose: 125.0 mg/kg/injection, schedule: Q#A X Z (oral), vehicle: saline 102 % of control | dose: 250.0 mg/kg/injection, schedule: Q#A X Z (oral), vehicle: saline 100 % of control | dose: 500.0 mg/kg/injection, schedule: Q#A X Z (oral), vehicle: saline 102 % of control | dose: 1000.0 mg/kg/injection, schedule: Q#A X Z (oral), vehicle: saline 102 % of control

O=C(NCCBr)Nc1ccc([N+](=O)[O-])cc1
inactive: dose: 50.0 mg/kg/injection, schedule: Q01DX009 (ip), vehicle: saline with Tween-80 90 % of control | dose: 100.0 mg/kg/injection, schedule: Q01DX009 (ip), vehicle: saline with Tween-80 87 % of control

COC(=O)CCC(C)[N+](=O)[O-] (stereo not drawn)
inactive: [1] 112 % of control | [3] 104 % of control | [5] 98 % of control

CC12CCCCC1CC(=O)/C(=C\O)C2 (stereo not drawn)
inactive: dose: 25.0 mg/kg/injection, schedule: Q04DX002 (ip), vehicle: DMSO 94 % of control | dose: 50.0 mg/kg/injection, schedule: Q04DX002 (ip), vehicle: DMSO 90 % of control

CC(=O)C1CCCC23CC(CC12)C(C)(C)C3Br (stereo not drawn)
inactive: [7] 100 % of control | [8] 103 % of control | dose: 400.0 mg/kg/injection, schedule: Q04DX003 (ip), vehicle: Klucel (hydroxypropylcellulose) (HPC) 97 % of control

O=S(=O)(OCC1CO1)c1ccc(Br)cc1 (stereo not drawn)
inactive: dose: 100.0 mg/kg/injection, schedule: Q01DX008 (ip), vehicle: Klucel (hydroxypropylcellulose) (HPC) 103 % of control | dose: 200.0 mg/kg/injection, schedule: Q01DX008 (ip), vehicle: Klucel (hydroxypropylcellulose) (HPC) 92 % of control | dose: 400.0 mg/kg/injection, schedule: Q01DX008 (ip), vehicle: Klucel (hydroxypropylcellulose) (HPC) 108 % of control

CN(N=Nc1ccc(C(=N)N)cc1)C1CCCCC1
inactive: dose: 9.5 mg/kg/injection, schedule: Q01DX001 (ip), vehicle: saline 95 % of control | dose: 19.0 mg/kg/injection, schedule: Q01DX001 (ip), vehicle: saline 98 % of control | dose: 38.0 mg/kg/injection, schedule: Q01DX001 (ip), vehicle: saline 95 % of control

CC(=O)OC1CCC2(C)C3=C(CCC2C1(C)C)C1CCC(C(C)CCC=C(C)C)C1(C)CC3 (stereo not drawn)
inactive: [7] 96 % of control | [8] 96 % of control

CCCC/C=C/C#N
inactive: dose: 75.0 mg/kg/injection, schedule: Q01DX009 (ip), vehicle: saline 100 % of control | dose: 100.0 mg/kg/injection, schedule: Q01DX001 (ip), vehicle: saline 106 % of control | [2] 98 % of control | dose: 150.0 mg/kg/injection, schedule: Q01DX009 (ip), vehicle: saline 97 % of control | dose: 200.0 mg/kg/injection, schedule: Q01DX001 (ip), vehicle: saline 96 % of control | [4] 101 % of control | dose: 400.0 mg/kg/injection, schedule: Q01DX001 (ip), vehicle: saline 92 % of control | [6] 94 % of control

Cc1cc2c(cc1C)/C(=N\O)CCCC2
inactive: dose: 100.0 mg/kg/injection, schedule: Q04DX003 (ip), vehicle: saline with Tween-80 110 % of control | dose: 200.0 mg/kg/injection, schedule: Q04DX003 (ip), vehicle: saline with Tween-80 92 % of control | dose: 400.0 mg/kg/injection, schedule: Q04DX003 (ip), vehicle: saline with Tween-80 94 % of control

CCOC(=O)c1ccc(NC(=O)CN2CCOCC2)cc1
inactive: dose: 222.0 mg/kg/injection, schedule: Q01DX Z (ip), vehicle: saline 102 % of control | dose: 333.0 mg/kg/injection, schedule: Q01DX Z (ip), vehicle: saline 98 % of control | dose: 500.0 mg/kg/injection, schedule: Q01DX Z (ip), vehicle: saline 90 % of control
